According to patent US9789130B2, “Method for blocking HIV entry into dendritic cells by inhibiting sialoadhesin-sialyllactose binding interactions with gangliosides” (LABORATORIOS DEL DR. ESTEVE, S.A., priority 2011, dated 2017):
Blank lines part the entries; values can stand above or below the compound they belong to.

Assays:
Siglec-1 [1] = biological target: T1, Siglec-1 (Homo sapiens, UniProt Q9BZZ2); assay: VLP capture by Siglec-1 transfected Raji B cells; type: cell-based; details: mAbs 10 μg/ml; sialyllactose at indicated concentrations, 30 min prior to VLP pulse
Method: Raji cells (2×10^6) were transfected with vector backbone pCMV6-Entry (Origene) comprising the coding region of Siglec-1, Siglec-5, or Siglec-7 using Amaxa nucleofector as recommended by the manufacturer. At 36 h posttransfection, cells were assessed for VLP capture and HIV-1 trans-infection (at a ratio 2:1) as described above. When indicated, cells were pre-incubated with decreasing concentrations of 3′-Sialyllactose (Carbosynth) or Lactose (Sigma-Aldrich) 30 min prior to VLP pulse. In experiments with envelope-deficient viruses, 5×10^5 cells were pulsed with 100 ng of p24^Gag estimated by ELISA for 4 h at 37° C. and assessed for capture and trans-infection (at a ratio 2:1) as aforementioned. HEK-293T cells were transfected using Fugene HD (Promega) and assessed 24 h posttransfection as described for Raji cells. Trans-infection of HEK-293T was tested in a different luminometer (Luminoskan Ascent, Thermo Labsystems), and collected data were normalized to 100%. Transfection efficiency in both cell types was assessed staining cells with anti-Siglec-1-PE 7-239 mAb, anti-Siglec-7-PE 5-386 mAb (AbD Serotec), and anti-Siglec-5/14-PE 1A5 mAb (Biolegend) and evaluated by FACS. Stable Raji DC-SIGN cells were labeled with anti-DC-SIGN-PE DCN46 mAb (BD Pharmigen).

mDCs = assay: Lactose and GM3 polar head group treatment of mDCs before LUV/VLP capture; type: cell-based, human; details: mDCs pre-incubated with 5 to 10 mM compound, relative to mock-treated mDCs
Method: mDCs were preincubated with or without 5 or 10 mM of lactose (Sigma-Aldrich Co., Saint Louis, Mo., US) and soluble GM3 carbohydrate head group (Carbosynth Ltd., Compton, Berkshire, GB) for 30 min at RT. Cells were then pulsed with 50 μM of GM3-containing LUVHIv-tRed and 75 ng of sucrose-pelleted VLPHIv-Gag-eGFP Gag for 2 h at 37° C., at a final concentration of 5 or 10 mM for the compounds tested. Cells were analyzed by FACS as described previously.

Siglec-1 [2] = biological target: T1, Siglec-1; assay: VLP capture by LPS mDCs pre-incubated with α-Siglec-1 mAbs; type: cell-based; design: Siglec-1 expressed in LPS mDCs capture distinct ganglioside containing vesicles; endogenous in cells; host or cells: LPS-matured monocyte-derived dendritic cells (LPS mDCs) from donor PBMCs; details: 2 μg/ml mAb 7D2 treated with at least 100-fold molar excess of human recombinant protein
Method: FIG. 11. Siglec-1 expressed in LPS mDCs capture distinct ganglioside containing vesicles, such as HIV-1 viral-like particles, liposomes, and exosomes. Capture of VLPHIV-Gag-eGFP by LPS mDCs that had been pre-incubated with decreasing concentrations of α-Siglec-1 mAb 7D2 before VLP exposure for 30 min at 37° C.
FIG. 12. Capture of VLPHIV-Gag-eGFP by LPS mDCs that had been pre-incubated with or without 2 μg/ml of α-Siglec-1 mAb 7D2 previously treated or not with at least a 100-fold molar excess of the indicated human recombinant proteins. Of note, Siglec-14 shares 100% of amino acid homology with Siglec-5 in the V-set domain.
FIG. 13. Blocking effect of α-Siglec-1 mAb 7-239. (A) Capture of VLPHIV-Gag-eGFP by LPS mDCs that had been pre-incubated with decreasing concentrations of α-Siglec-1 mAb 7-239 before VLP exposure for 30 min at 37° C. […] (B) Capture of VLPHIV-Gag-eGFP by LPS mDCs that had been pre-incubated with 10 μg/ml of the indicated mAbs before VLP exposure for 3 h at 37° C.

T1 sequence (Q9BZZ2 20-1709): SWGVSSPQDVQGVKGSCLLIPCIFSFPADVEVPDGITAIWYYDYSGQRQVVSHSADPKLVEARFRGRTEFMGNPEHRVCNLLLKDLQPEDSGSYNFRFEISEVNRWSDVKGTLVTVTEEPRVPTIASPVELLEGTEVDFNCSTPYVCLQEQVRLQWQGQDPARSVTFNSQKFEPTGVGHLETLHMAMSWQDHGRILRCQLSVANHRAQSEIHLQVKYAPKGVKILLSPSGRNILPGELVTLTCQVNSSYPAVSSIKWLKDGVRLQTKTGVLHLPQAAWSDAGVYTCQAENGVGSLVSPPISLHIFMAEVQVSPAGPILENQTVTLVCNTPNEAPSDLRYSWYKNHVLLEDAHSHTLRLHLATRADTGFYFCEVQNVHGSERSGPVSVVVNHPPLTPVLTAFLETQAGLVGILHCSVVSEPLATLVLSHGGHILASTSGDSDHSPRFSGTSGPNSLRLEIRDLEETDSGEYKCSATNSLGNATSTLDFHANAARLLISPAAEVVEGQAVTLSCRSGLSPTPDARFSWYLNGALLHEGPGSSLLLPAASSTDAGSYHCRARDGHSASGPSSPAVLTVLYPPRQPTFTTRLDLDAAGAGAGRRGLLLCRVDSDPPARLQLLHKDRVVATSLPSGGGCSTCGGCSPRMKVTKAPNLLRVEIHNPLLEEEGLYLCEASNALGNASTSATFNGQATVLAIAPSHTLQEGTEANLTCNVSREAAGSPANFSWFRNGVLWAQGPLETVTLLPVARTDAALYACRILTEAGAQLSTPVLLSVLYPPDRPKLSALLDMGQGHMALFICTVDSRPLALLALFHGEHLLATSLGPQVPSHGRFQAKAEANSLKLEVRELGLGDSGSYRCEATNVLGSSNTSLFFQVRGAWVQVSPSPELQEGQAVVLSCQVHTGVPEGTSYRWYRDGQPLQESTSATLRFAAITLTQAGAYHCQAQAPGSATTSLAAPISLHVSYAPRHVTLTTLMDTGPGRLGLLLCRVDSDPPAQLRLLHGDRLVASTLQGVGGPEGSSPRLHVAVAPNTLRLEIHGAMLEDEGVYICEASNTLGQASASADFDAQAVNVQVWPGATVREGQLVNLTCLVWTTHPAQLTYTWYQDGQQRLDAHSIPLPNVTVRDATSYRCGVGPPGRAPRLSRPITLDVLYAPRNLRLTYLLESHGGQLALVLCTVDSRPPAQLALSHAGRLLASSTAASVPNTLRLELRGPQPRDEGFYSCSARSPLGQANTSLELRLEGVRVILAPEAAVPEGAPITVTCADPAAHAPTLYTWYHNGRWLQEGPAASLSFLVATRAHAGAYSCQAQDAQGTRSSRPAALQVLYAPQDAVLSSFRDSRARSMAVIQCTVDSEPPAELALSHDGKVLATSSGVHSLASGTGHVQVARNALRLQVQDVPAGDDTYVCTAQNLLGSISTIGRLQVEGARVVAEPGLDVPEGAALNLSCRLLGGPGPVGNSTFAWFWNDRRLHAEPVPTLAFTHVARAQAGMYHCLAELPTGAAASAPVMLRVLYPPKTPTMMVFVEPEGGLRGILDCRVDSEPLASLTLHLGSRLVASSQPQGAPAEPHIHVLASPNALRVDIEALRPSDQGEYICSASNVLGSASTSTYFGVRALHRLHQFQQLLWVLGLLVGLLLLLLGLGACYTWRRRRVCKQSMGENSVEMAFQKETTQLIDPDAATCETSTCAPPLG

VLPHIV-Gag-eGFP capture by Siglec-1 transfected Raji cells after pre-incubation with inhibitor (Siglec-1 [1]): blocked VLP capture
Compound: CC(=O)N[C@H]1[C@H]([C@H](O)[C@H](O)CO)O[C@@](O[C@H]2[C@@H](O)[C@@H](CO)O[C@@H](O[C@H]3[C@H](O)[C@@H](O)C(O)O[C@@H]3CO)[C@@H]2O)(C(=O)O)C[C@@H]1O (stereo partly drawn) [sialyllactose, 3′-Sialyllactose]

Compound: CC(=O)N[C@H]1[C@H]([C@H](O)[C@H](O)CO)O[C@@](O[C@H]2[C@@H](O)[C@@H](CO)O[C@@H](O[C@H]3[C@H](O)[C@@H](O)C(O)O[C@@H]3CO)[C@@H]2O)(C(=O)O)C[C@@H]1O (stereo partly drawn) [soluble GM3]
capture of GM3-containing LUVHIV-tRed by mDCs in the presence of soluble carbohydrate (mDCs): completely blocked
capture of VLPHIV-Gag-eGFP by mDCs in the presence of soluble carbohydrate (mDCs): completely blocked
capture of GM3-containing LUVHIV-tRed by mDCs in the presence of soluble carbohydrate (mDCs; listed as GM3 polar head group): captured less particles
capture of VLPHIV-Gag-eGFP by mDCs in the presence of soluble carbohydrate (mDCs; listed as GM3 polar head group): captured less particles

VLP capture by LPS mDCs with mAb 7D2 pre-incubated with purified protein (Siglec-1 [2]): completely restored VLP capture
Compound: purified Siglec-1: human recombinant Siglec-1 protein used to pre-treat mAb 7D2
